According to patent publication US20160212997A1, “AGRICULTURAL CHEMICALS” (REDAG CROP PROTECTION LTD, priority 2013, published 2016):
Where two headings read alike, the source gives them in different places.

Tests used:
Format in all cases: in vivo
[1] = system: aphids, Myzus persicae; assay: Potter tower spray on aphids, knockdown and mortality; details: Aphids; for pest or weed control at 0.00625 % strength / pest or weed control at 0.0125 % strength / pest or weed control at 0.025 % strength / pest or weed control at 0.05 % strength / pest or weed control at 0.1 % strength: Myzus persicae, read-out: Average of % corrected affected; for pest or weed control at 0.00625 % strength: 0.00625 % w/v; for pest or weed control at 0.0125 % strength: 0.0125 % w/v; for pest or weed control at 0.025 % strength: 0.025 % w/v; for pest or weed control at 0.05 % strength: 0.05 % w/v; for pest or weed control at 0.1 % strength: 0.1 % w/v
Excerpt: (§1) The compounds were screened for insecticidal efficacy against aphids, Myzus persicae, Cabbage moth, Mamestra brassicae, diamond black moths, Plutella xylostella, red spider mites, Tetranychus urticae, whitefly, Trialeurodes vaporariorum, in terms of knockdown and mortality.
(§2) Myzus persicae, Cabbage moth, Mamestra brassicae, diamond back moths, Plutella xylostella, red spider mites, Tetranychus urticae, whitefly, Trialeurodes vaporariorum, were obtained from specified laboratory cultures. Mixed sex and age aphids and mites, moth larvae and whitefly scale infested leaves were used in the experiments. Environmental conditions were closely monitored and recorded and were within the optimal range of the target species.
(§3) The compounds were screened at a range of five concentrations, diluted in DMSO. Some of the compounds were screened against aphids, whitefly and red spider mites and other compounds were screened against cabbage moth, and diamond black moths. A carrier only and an untreated control will also be conducted. Treatments were applied directly onto the insects within Petri dishes, using a potter tower.
(§4) Twenty mites and ten aphids, scales and moth larvae were placed within a Petri dish, lined with a suitable leaf disc on a damp cotton wool pad. Scales were already on leaves. The Petri dishes were then sprayed using a potter tower. The number of knocked down and anthropods were assessed at 24 and 48 hours post treatment. Five replicates were be performed for each treatment, for each species.
(§5) For Tables 2, 4, 5 and 6, the compounds were diluted in DMSO containing 1% v/v Tween 20™. For Tables 2, 4, 5 and 6, the caterpillars were a mixture of Mamestra brassicae and Lacanobia oleracea.

[2] = system: red spider mites, Tetranychus urticae; assay: Potter tower spray on red spider mites, knockdown and mortality; details: Spider mites
Excerpt: as §1, §2, §3, §4

[3] = system: caterpillars, a mixture of Mamestra brassicae and Lacanobia oleracea; assay: Potter tower spray on caterpillars, knockdown and mortality; details: Caterpillars, read-out: Average of % corrected affected; for pest or weed control at 0.00625 % strength: 0.00625 % w/v; for pest or weed control at 0.0125 % strength: 0.0125 % w/v; for pest or weed control at 0.025 % strength: 0.025 % w/v; for pest or weed control at 0.05 % strength: 0.05 % w/v; for pest or weed control at 0.1 % strength: 0.1 % w/v
Excerpt: as §2, §3, §4, §5

[4] = 24 h, 24 hours post application
[5] = 48 h, 48 hours post application

| SMILES | percentage control ([1]; 25 g/ha, 24 h) | percentage control ([1]; 25 g/ha, 48 h) | percentage control ([1]; 50 g/ha, 24 h) | percentage control ([1]; 50 g/ha, 48 h) | percentage control ([1]; 100 g/ha, 24 h) | percentage control ([1]; 100 g/ha, 48 h) | percentage control ([1]; 200 g/ha, 24 h) | percentage control ([1]; 200 g/ha, 48 h) | percentage control ([1]; 400 g/ha, 24 h) | percentage control ([1]; 400 g/ha, 48 h) | percentage control ([2]; 25 g/ha, 24 h) | percentage control ([2]; 25 g/ha, 48 h) | percentage control ([2]; 50 g/ha, 24 h) | percentage control ([2]; 50 g/ha, 48 h) | percentage control ([2]; 100 g/ha, 24 h) | percentage control ([2]; 100 g/ha, 48 h) | percentage control ([2]; 200 g/ha, 24 h) | percentage control ([2]; 200 g/ha, 48 h) | percentage control ([2]; 400 g/ha, 24 h) | percentage control ([2]; 400 g/ha, 48 h) | further results |
| --- | --- | --- | --- | --- | --- | --- | --- | --- | --- | --- | --- | --- | --- | --- | --- | --- | --- | --- | --- | --- | --- |
| O=C1C=C(N(Cc2ccc(Cl)nc2)CC(F)F)CO1 [Compound 1, 3-[(6-Chloro-3-pyridyl)methyl-(2,2-difluoroethyl)amino]-2H-furan-5-one, reference compound] | E (A percentage control of from 1 to 19 is indicated by the letter E) | C (A percentage control of from 40 to 59 is indicated by the letter C) | D (A percentage control of from 20 to 39 is indicated by the letter D) | A (A percentage control of from 80 to 100 is indicated by the letter A) | D (A percentage control of from 20 to 39 is indicated by the letter D) | A (A percentage control of from 80 to 100 is indicated by the letter A) | C (A percentage control of from 40 to 59 is indicated by the letter C) | A (A percentage control of from 80 to 100 is indicated by the letter A) | B (A percentage control of from 60 to 79 is indicated by the letter B) | A (A percentage control of from 80 to 100 is indicated by the letter A) | D (A percentage control of from 20 to 39 is indicated by the letter D) | D (A percentage control of from 20 to 39 is indicated by the letter D) | D (A percentage control of from 20 to 39 is indicated by the letter D) | D (A percentage control of from 20 to 39 is indicated by the letter D) | E (A percentage control of from 1 to 19 is indicated by the letter E) | D (A percentage control of from 20 to 39 is indicated by the letter D) | D (A percentage control of from 20 to 39 is indicated by the letter D) | D (A percentage control of from 20 to 39 is indicated by the letter D) | D (A percentage control of from 20 to 39 is indicated by the letter D) | C (A percentage control of from 40 to 59 is indicated by the letter C) | – |
| CCOC(=O)CN(Cc1ccc(Cl)nc1)C1=CC(=O)OC1 [Compound 3, Ethyl 2-[(6-chloro-3-pyridyl)methyl-(5-oxo-2H-furan-3-yl)amino]acetate] | E (A percentage control of from 1 to 19 is indicated by the letter E) | D (A percentage control of from 20 to 39 is indicated by the letter D) | 0% | C (A percentage control of from 40 to 59 is indicated by the letter C) | E (A percentage control of from 1 to 19 is indicated by the letter E) | B (A percentage control of from 60 to 79 is indicated by the letter B) | E (A percentage control of from 1 to 19 is indicated by the letter E) | C (A percentage control of from 40 to 59 is indicated by the letter C) | E (A percentage control of from 1 to 19 is indicated by the letter E) | B (A percentage control of from 60 to 79 is indicated by the letter B) | B (A percentage control of from 60 to 79 is indicated by the letter B) | C (A percentage control of from 40 to 59 is indicated by the letter C) | D (A percentage control of from 20 to 39 is indicated by the letter D) | D (A percentage control of from 20 to 39 is indicated by the letter D) | C (A percentage control of from 40 to 59 is indicated by the letter C) | C (A percentage control of from 40 to 59 is indicated by the letter C) | D (A percentage control of from 20 to 39 is indicated by the letter D) | D (A percentage control of from 20 to 39 is indicated by the letter D) | D (A percentage control of from 20 to 39 is indicated by the letter D) | D (A percentage control of from 20 to 39 is indicated by the letter D) | pest or weed control at 0.00625 % strength [3, 4]: 1 to 19%; pest or weed control at 0.0125 % strength [3, 4]: 1 to 19%; pest or weed control at 0.025 % strength [3, 4]: 1 to 19%; pest or weed control at 0.05 % strength [3, 4]: 1 to 19%; pest or weed control at 0.1 % strength [3, 4]: 1 to 19%; pest or weed control at 0.00625 % strength [3, 5]: 1 to 19%; pest or weed control at 0.0125 % strength [3, 5]: 1 to 19%; pest or weed control at 0.025 % strength [3, 5]: 1 to 19%; pest or weed control at 0.05 % strength [3, 5]: 1 to 19%; pest or weed control at 0.1 % strength [3, 5]: 20 to 39%; pest or weed control at 0.00625 % strength [1, 4]: 1 to 19%; pest or weed control at 0.0125 % strength [1, 4]: 1 to 19%; pest or weed control at 0.025 % strength [1, 4]: 1 to 19%; pest or weed control at 0.05 % strength [1, 4]: 1 to 19%; pest or weed control at 0.1 % strength [1, 4]: 1 to 19%; pest or weed control at 0.00625 % strength [1, 5]: 1 to 19%; pest or weed control at 0.0125 % strength [1, 5]: 1 to 19%; pest or weed control at 0.025 % strength [1, 5]: 20 to 39%; pest or weed control at 0.05 % strength [1, 5]: 20 to 39%; pest or weed control at 0.1 % strength [1, 5]: 20 to 39% |
